Where two headings read alike, the source gives them in different places.
Columns and labels:
human PD-1/PD-L1 binding = biological target: T1, human PD-1/PD-L1 binding (Homo sapiens, UniProt Q9NZQ7); assay: Inhibition of human PD-1/PD-L1 binding (TR-FRET/HTRF); settings: TR-FRET, PD-L1-His and PD-1-Fc; read-out: PD-1/PD-L1 binding IC50
T1 construct: PD-L1-His protein (19 to 238 amino acids) (Abcam #ab167713); purchased Abcam (PD-L1-His); R&D (PD-1-Fc) ab167713; 1086-PD
Method in brief: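 PD-L1-His (aa 19–238, diluted to 10 nM) and PD-1-Fc (aa 25–167, diluted to 20 nM) incubated with compounds (10 μM or 1 μM top, 3-fold, 11 doses) 60 min at room temperature, then anti-6HIS Eu cryptate/anti-human IgG-XL665 added for 3 h RT or overnight 4 °C. HTRF 665/620 nm ratio gave inhibition and IC50.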

human PD-L1 protein = biological target: T2, human PD-L1 protein (Homo sapiens, UniProt Q9NZQ7); assay: Thermal shift: melting temperature of PD-L1 protein; assay type: binding; settings: read-out: ΔTm (° C.)
T2 construct: purchased Acro Biosystems PD1-H5229
Procedure: Test Embodiment 4. Test of Combination of the Compounds of the Present Disclosure to Improve the Stability (Melting Temperature) of PD-L1 Protein Experimental purpose: To test the ability of compounds to enhance the stability of PD-L1 protein and increase the melting temperature of the protein. Experimental method: […] A solution containing […] HEPES, SYPRO Orange, and 150 mM NaCl was prepared as experimental buffer, and human PD-L1 protein was added at a final concentration of 2 μM. […] PCR tube was put into the PCR machine, and the melt curve function was selected to detect the melting temperature of PD-L1 protein in different treatment groups (heated from 25° C. to 95° C., 0.03° C./s). The experimental data file of the PCR instrument was imported into the thermal shift software to obtain the melting temperature (Tm) of each treatment group, and the Tm of the DMSO vehicle control group was subtracted to obtain the change value (ΔTm) of the melting temperature, as shown in the following table: […]

[1] = biological target: T3, PD-L1 protein on the surface of MC38-hPDL1 tumor cells (Homo sapiens, UniProt Q9NZQ7); assay: Induction of endocytosis of PD-L1 on the surface of tumor cells (flow cytometry); assay type: cell-based; settings: 16 hours incubation; for Emax: MC38-hPDL1 cells, read-out: MC38 maximum endocytosis rate; for IC50: inducing endocytosis of PD-L1, MC38-hPDL1 cells, read-out: MC38 IC50
T3 construct: expressed in transfected cells; host or cells: MC38-hPDL1 (mouse colon cancer cells)
Method in brief: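 IC50 comes from nonlinear fits of endocytosis rate, calculated from the loss of surface PE-anti-CD274 flow signal relative to vehicle. Cells were MC38 mouse colon cancer cells engineered to express high human PD-L1. Compound exposure lasted 16 h at 37 °C, 5% CO2.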

[2] = compound 10 μM, PD-L1 protein 2 μM, Tm minus DMSO vehicle control

T1 sequence (Q9NZQ7 19-238): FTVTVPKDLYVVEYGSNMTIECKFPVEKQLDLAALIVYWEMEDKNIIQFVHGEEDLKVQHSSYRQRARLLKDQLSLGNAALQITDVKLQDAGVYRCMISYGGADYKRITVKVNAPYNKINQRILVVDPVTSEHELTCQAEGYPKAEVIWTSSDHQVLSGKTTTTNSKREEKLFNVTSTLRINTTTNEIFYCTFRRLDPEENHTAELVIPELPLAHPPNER
T2 sequence (Q9NZQ7 19-238 limits assumed): as the sequence (Q9NZQ7 19-238) above
T3 sequence (Q9NZQ7 19-290): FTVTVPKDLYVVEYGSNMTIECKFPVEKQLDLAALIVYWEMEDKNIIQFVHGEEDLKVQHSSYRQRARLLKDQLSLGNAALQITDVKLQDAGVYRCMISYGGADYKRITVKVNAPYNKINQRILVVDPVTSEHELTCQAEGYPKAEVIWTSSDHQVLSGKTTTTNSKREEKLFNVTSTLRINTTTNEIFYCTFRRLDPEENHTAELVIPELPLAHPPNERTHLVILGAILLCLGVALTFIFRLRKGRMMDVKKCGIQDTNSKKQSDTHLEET

Row | Structure (SMILES) | IC50 (human PD-1/PD-L1 binding) [nM] | ΔTm at 10 µM (human PD-L1 protein; [2]) [°C] | Emax [1] [%] | IC50 [1] [nM] | ΔTm at 10 µM (human PD-L1 protein) [°C]
1 | COc1nc(-c2cccc(-c3cccc(NC(=O)c4nc5c(n4C)CCN(C)C5)c3Cl)c2Cl)ccc1CN1CC2(CCN(C(C)=O)CC2)C1 [Embodiment 194, N-(3′-(5-((7-Acetyl-2,7-diazaspiro[3.5]nonan-2-yl)methyl)-6-methoxypyridin-2-yl)-2,2′-dichloro-[1,1′-biphenyl]-3-yl)-1,5-dimethyl-4,5,6,7-tetrahydro-1H-imidazo[4,5-c]pyridine-2-carboxamide] | 7.9 | 13.2 | 96 |  | 
2 | CCn1c(C(=O)Nc2cccc(-c3cccc(-c4ccc(CN5CC(CO)C5)c(OC)n4)c3Cl)c2Cl)nc2c1CCN(C)C2 [Embodiment 239, N-(2,2′-Dichloro-3′-(5-((3-(hydroxymethyl)azetidin-1-yl)methyl)-6-methoxypyridin-2-yl)-[1,1′-biphenyl]-3-yl)-1-ethyl-5-methyl-4,5,6,7-tetrahydro-1H-imidazo[4,5-c]pyridine-2-carboxamide] | 4.9 | 11.9 | 95 |  | 
3 | COc1nc(-c2cccc(-c3cccc(NC(=O)c4nc5c(n4C)CCN(C)C5)c3Cl)c2Cl)ccc1CN1CC2(CCCO2)C1 [Embodiment 125, N-(3′-(5-((5-Oxa-2-azaspiro[3.4]octan-2-yl)methyl)-6-methoxypyridin-2-yl)-2,2′-dichloro-[1,1′-biphenyl]-3-yl)-1,5-dimethyl-4,5,6,7-tetrahydro-1H-imidazo[4,5-c]pyridine-2-carboxamide] | 8.4 |  | 96 | 0.7 | 15.6
4 | COc1cc(-c2cccc(-c3cccc(NC(=O)c4nc5c(n4C)CCN(C)C5)c3Cl)c2Cl)ccc1CNC[C@@H](C)O [Embodiment 158, (R)—N-(2,2′-Dichloro-4″-(((2-hydroxypropyl)amino)methyl)-3″-methoxy-[1,1′:3′,1″-terphenyl]-3-yl)-1,5-dimethyl-4,5,6,7-tetrahydro-1H-imidazo[4,5-c]pyridine-2-carboxamide] | 6.4 | 10.3 | 95 | 1.7 | 
5 | COc1cc(-c2cccc(-c3cccc(NC(=O)c4nc5c(n4C)CCN(C)C5)c3Cl)c2Cl)ccc1CNCCO [Embodiment 157, N-(2,2′-Dichloro-4″-(((2-hydroxyethyl)amino)methyl)-3″-methoxy-[1,1′:3′,1″-terphenyl]-3-yl)-1,5-dimethyl-4,5,6,7-tetrahydro-1H-imidazo[4,5-c]pyridine-2-carboxamide] | 4 | 11.2 | 95 | 1.5 | 
6 | COc1nc(-c2cccc(-c3cccc(NC(=O)c4nc5c(n4C)CCN(C)C5)c3Cl)c2Cl)ncc1CNCCO [Embodiment 229, N-(2,2′-Dichloro-3′-(5-(((2-hydroxyethyl)amino)methyl)-4-methoxypyrimidin-2-yl)-[1,1′-biphenyl]-3-yl)-1,5-dimethyl-4,5,6,7-tetrahydro-1H-imidazo[4,5-c]pyridine-2-carboxamide] | 3.2 | 12 | 95 |  | 
7 | COc1nc(-c2cccc(-c3cccc(NC(=O)c4nc5c(n4C)CCN(C)C5)c3Cl)c2Cl)ccc1CN1CC2(C1)CN(C(=O)CC#N)C2 [Embodiment 191, N-(2,2′-Dichloro-3′-(5-((6-(2-cyanoacetyl)-2,6-diazaspiro[3.3]heptan-2-yl)methyl)-6-methoxypyridin-2-yl)-[1,1′-biphenyl]-3-yl)-1,5-dimethyl-4,5,6,7-tetrahydro-1H-imidazo[4,5-c]pyridine-2-carboxamide] | 4.8 | 11.7 | 97 |  | 
8 | COc1nc(-c2cccc(-c3cccc(NC(=O)c4nc5c(n4C)CCN(C)C5)c3Cl)c2Cl)ccc1CN1CC(C)(O)C1 [Embodiment 130, N-(2,2′-Dichloro-3′-(5-((3-hydroxy-3-methylazetidin-1-yl)methyl)-6-methoxypyridin-2-yl)-[1,1′-biphenyl]-3-yl)-1,5-dimethyl-4,5,6,7-tetrahydro-1H-imidazo[4,5-c]pyridine-2-carboxamide] | 4.8 |  | 97 | 1.2 | 18.1
9 | COc1nc(-c2cccc(-c3cccc(NC(=O)c4nc5c(n4C)CCN(C)C5)c3Cl)c2Cl)ccc1CN1CC[C@H]1C(=O)O [Embodiment 171, (S)-1-((6-(2,2′-Dichloro-3′-(1,5-dimethyl-4,5,6,7-tetrahydro-1H-imidazo[4,5-c]pyridine-2-carboxamido)-[1,1′-biphenyl]-3-yl)-2-methoxypyridin-3-yl)methyl)azetidine-2-carboxylic acid] | 0.9 |  | 93 |  | 10.3

Continued, in another order:

Row | IC50 (human PD-1/PD-L1 binding) [nM] | ΔTm at 10 µM (human PD-L1 protein; [2]) [°C] | Emax [1] [%] | IC50 [1] [nM] | Structure (SMILES) | ΔTm at 10 µM (human PD-L1 protein) [°C]
10 | 5.3 | 10.2 | 93 |  | COc1nc(-c2cccc(-c3cccc(NC(=O)c4nc5c(n4C)CCN(C)C5)c3Cl)c2Cl)ccc1CNC1CCOCC1C(=O)O (stereo not drawn) [Embodiment 214, 4-(((6-(2,2′-Dichloro-3′-(1,5-dimethyl-4,5,6,7-tetrahydro-1H-imidazo[4,5-c]pyridin-2-carboxamido)-[1,1′-biphenyl]-3-yl)-2-methoxypyridin-3-yl)methyl)amino)tetrahydro-2H-pyran-3-carboxylic Acid] | 
11 | 6.5 | 16.8 | 98 | 0.6 | COc1nc(-c2cccc(-c3cccc(NC(=O)c4nc5c(n4C)CCN(C)C5)c3Cl)c2Cl)ccc1CNC[C@@H](C)O [Embodiment 128, (R)—N-(2,2′-Dichloro-3′-(5-(((2-hydroxypropyl)amino)methyl)-6-methoxypyridin-2-yl)-[1,1′-biphenyl]-3-yl)-1,5-dimethyl-4,5,6,7-tetrahydro-1H-imidazo[4,5-c]pyridine-2-carboxamide] | 
12 | 8.5 | 14 | 97 | 0.8 | COc1nc(-c2cccc(-c3cccc(NC(=O)c4nc5c(n4C)CCN(C)C5)c3Cl)c2Cl)ccc1CN1CC2(C1)CN(C(=O)C(F)F)C2 [Embodiment 190, N-(2,2′-Dichloro-3′-(5-((6-(2,2-difluoroacetyl)-2,6-diazaspiro[3.3]heptan-2-yl)methyl)-6-methoxypyridin-2-yl)-[1,1′-biphenyl]-3-yl)-1,5-dimethyl-4,5,6,7-tetrahydro-1H-imidazo[4,5-c]pyridine-2-carboxamide] | 
13 | 7.1 | 10.7 | 90 |  | COc1nc(-c2cccc(-c3cccc(NC(=O)c4nc5c(n4C)CCN(C)C5)c3Cl)c2Cl)ccc1CN1C2CC1CN(C(C)=O)C2 [Embodiment 209, N-(3′-(5-((3-Acetyl-3,6-diazabicyclo[3.1.1]heptan-6-yl)methyl)-6-methoxypyridin-2-yl)-2,2′-dichloro-[1,1′-biphenyl]-3-yl)-1,5-dimethyl-4,5,6,7-tetrahydro-1H-imidazo[4,5-c]pyridine-2-carboxamide] | 
14 | 1.7 | 11.1 | 94 |  | COc1nc(-c2cccc(-c3cccc(NC(=O)c4nc5c(n4C)CCN(C)C5)c3Cl)c2Cl)ccc1CN[C@@H](CO)C(=O)O [Embodiment 232, ((6-(2,2′-Dichloro-3′-(1,5-dimethyl-4,5,6,7-tetrahydro-1H-imidazo[4,5-c]pyridine-2-carboxamido)-[1,1′-biphenyl]-3-yl)-2-methoxypyridin-3-yl)methyl)-L-serine] | 
15 | 2.8 | 13 | 97 |  | CCn1c(C(=O)Nc2cccc(-c3cccc(-c4ccc(CN5CC(C(=O)O)C5)c(OC)n4)c3Cl)c2Cl)nc2c1CCN(C)C2 [Embodiment 240, 1-((6-(2,2′-Dichloro-3′-(1-ethyl-5-methyl-4,5,6,7-tetrahydro-1H-imidazo[4,5-c]pyridine-2-carboxamido)-[1,1′-biphenyl]-3-yl)-2-methoxypyridin-3-yl)methyl)azetidine-3-carboxylic Acid] | 
16 | 8.8 | 13.3 | 96 |  | COc1nc(-c2cccc(-c3cccc(NC(=O)c4nc5c(n4C)CCN(C)C5)c3Cl)c2Cl)ccc1CN1C[C@@H]2C[C@H]1CN2C(C)=O [Embodiment 205, N-(3′-(5-(((1S,4S)-5-Acetyl-2,5-diazabicyclo[2.2.1]heptan-2-yl)methyl)-6-methoxypyridin-2-yl)-2,2′-dichloro-[1,1′-biphenyl]-3-yl)-1,5-dimethyl-4,5,6,7-tetrahydro-1H-imidazo[4,5-c]pyridine-2-carboxamide] | 

From US20230105212A1, “BIPHENYL DERIVATIVE INHIBITOR, PREPARATION METHOD THEREFOR AND USE THEREOF” (SHANGHAI HANSOH BIOMEDICAL CO., LTD., priority 2020, published 2023)
